From patent publication US20240366632A1, “METHODS FOR THE TREATMENT OF OCULAR ROSACEA” (INSTITUT NATIONAL DE LA SANTÉ ET DE LA RECHERCHE MÉDICALE, priority 2021, published 2024)

Legend:
[1] = tested on: corneal neovascularization induced by limbal deficiency; assay: rat model of CN induced by de-epithelialization and limbal resection; type: in vivo; conditions: for corneal edema / corneal neovascularization / corneal re-epithelialization / corneal thickness: rat, limbal deficiency
Excerpt: FIG. 1. Corneal de-epthelialization and limbal resection model treatment schemes.
Corneal neovascularization (CN) is a severe vision-threatening complication of OR.

GR/MR balance = assay: GR and MR expression in the cornea/limbus of rats with limbal deficiency; type: in vivo, rat
Excerpt: FIG. 4. Spironolactone up-regulates GR and the GR/MR balance in favor of GR pathway activation. The corneal de-epithelialization and limbal deficiency model induces a down regulation of GR genes at day 3 and 7, and is restored at day 14 when the cornea is healed. […] Spironolactone normalizes the GR/MR balance, favoring GR pathway activation.
Thus, spironolactone normalizes the GR/MR balance, favoring GR pathway activation.

[2] = tested on: genes regulated in the cornea and limbus; assay: full transcriptomic regulation in the cornea and limbus; type: in vivo, rat; conditions: cornea and limbus at 3 and 7 days
Excerpt: A full transcriptomic regulation induced in the cornea and limbus at 3 and 7 days after spironolactone systemic injection alone or with TA has been realized.

Compound: COC(=O)[C@@H]1CC2=CC(=O)CC[C@]2(C)[C@@]23O[C@@H]2C[C@@]2(C)[C@@H](CC[C@@]24CCC(=O)O4)[C@H]13 [eplerenone, Pregn-4-ene-7,21-dicarboxylic acid, 9,11-epoxy-17-hydroxy-3-oxo-,γ-lactone, methyl ester, (7α, 11α, 17β)]
- corneal edema [1]: decrease
- corneal neovascularization [1]: inhibited
- corneal re-epithelialization [1]: improved
- corneal thickness [1]: decrease

Compound: CC(=O)S[C@@H]1CC2=CC(=O)CC[C@]2(C)[C@H]2CC[C@@]3(C)[C@@H](CC[C@@]34CCC(=O)O4)[C@H]12 [spironolactone, 17-hydroxy-7α-mercapto-3-oxo-17α-pregn-4-ene-21-carboxylic acid γ-lactone acetate]
- GR expression in the cornea (GR/MR balance; day 3 and 7): up regulates and normalizes
- MR expression (GR/MR balance; rat, in vivo): does not influence
- infiltration of ED1 positive inflammatory cells in corneal lesions ([1]; corneal sections at day 3): reduced infiltration
- infiltration of IBA1-positive macrophages in corneal lesions ([1]; corneal sections at day 3): reduced infiltration
- corneal edema [1]: decrease
- corneal neovascularization [1]: inhibited
- corneal re-epithelialization [1]: improved
- corneal thickness [1]: decrease
- corneal re-epithelialization (corneal wound) delayed by the TA injection ([1]; spironolactone given with TA injection): improved
- genes up or down regulated [2]: 75 genes
